Measured values as given in patent US20250042896A1, “POLYCYCLIC COMPOUND AS CBL-B INHIBITOR” (HAINAN SIMCERE ZAIMING PHARMACEUTICAL CO., LTD., priority 2021, published 2025).

The compounds below were run on Jurkat T cells (assay: Jurkat T activation assay (IL-2 release, ELISA)). Conditions: IL-2 release of Jurkat T cells, Anti-Human CD3/CD28 stimulation, 48 hours, IL-2 ELISA.
Type: cell-based
Description: Experiment purpose: Testing of effect of compounds on IL-2 release and activation of Jurkat T cells
Experimental method: 96-well cell plates (Corning) were coated with 2 μg/mL Anti-Human CD3 Clone OKT3 (BD) at 37° C. for 4 hours. 3-fold serial dilutions of compounds (final concentration 10 μM-4.6 nM, starting concentration 10 μM, 3-fold dilution, 8 points, 8th point being 4.6 nM) and 220 μL of 1.11×10^6/mL Jurkat T cells (ATCC) were incubated for 1 hour, 5 μL of 45 μg/mL Anti-Human CD28 Clone CD28.2 (BD) was added, mixed evenly, 100 μL was transferred to the aforementioned CD3-coated cell plate, cultured in a cell incubator at 37° C. for 48 hours, and the supernatant was collected and the IL-2 release was detected using an IL-2 ELISA kit (BD). EC50 was analyzed using Prism.

Row | Structure (SMILES) | EC50
1 | CC1CC(c2cccc(-c3cnc4c(C(F)(F)F)cc(CN5CCC[C@H](C)C5)cn4c3=O)c2)(c2nncn2C)C1 (stereo partly drawn) [Compound 2, 3-[3-[3-methyl-1-(4-methyl-4H-1,2,4-triazol-3-yl)cyclobutyl]phenyl]-7-[[(3S)-3-methyl-1-piperidyl]methyl]-9-(trifluoromethyl)pyrido[1,2-a]pyrimidin-4-one] | 634 nM
2 | C[C@H]1CCCN(Cc2cc(C(F)(F)F)c3ncc(-c4cccc([C@]5(c6nncn6C)C[C@@H](C)C5)c4)c(=O)n3c2)C1 [Compound 2-P1] | 426 nM
3 | CC1CC(c2cccc(-c3cnc4c(C(F)(F)F)cc(CN5CC6CC(C)(C6)C5)cn4c3=O)c2)(c2nncn2C)C1 (stereo not shown) [Compound 62] | 525 nM

More lines, now with the values ahead:

Row | EC50 | Structure (SMILES)
4 | 250 nM | Cc1c(F)c(CN2CCC[C@H](C)C2)cc2c(=O)c(-c3cccc(C4(c5nncn5C)CC(C)C4)c3)coc12 (stereo in doubt) [Compound 121, 7-fluoro-8-methyl-3-(3-(cis-3-methyl-1-(4-methyl-4H-1,2,4-triazol-3-yl)cyclobutyl)phenyl)-6-(((s)-3-methylpiperidin-1-yl)methyl)-4H-chromen-4-one]
5 | 112 nM | Cc1cc(CN2CCC[C@H](C)C2)cc2c(=O)c(-c3cccc(C4(c5nncn5C)CC(C)C4)c3)coc12 (stereo partly drawn) [Compound 58, (S)-8-methyl-3-(3-(3-methyl-1-(4-methyl-4H-1,2,4-triazol-3-yl)cyclobutyl)phenyl)-6-((3-methylpiperidin-1-yl)methyl)-4H-chromen-4-one]
6 | 265 nM | Cc1cc(CN2CCC[C@H](C)C2)cc2c(=O)c(-c3cncc(C4(c5nncn5C)CC(C)C4)c3)coc12 (stereo partly drawn) [Compound 65, (S)-8-methyl-3-(5-(3-methyl-1-(4-methyl-4H-1,2,4-triazol-3-yl)cyclobutyl)pyridin-3-yl)-6-((3-methylpiperidin-1-yl)methyl)-4H-chromen-4-one]

Each compound was assayed against Cbl-b protein and UbcH5B-Ub (Homo sapiens (Human), UniProt Q13191) (assay: Cbl-b activity assay (HTRF, interaction between Cbl-b protein and UbcH5B-Ub)). Conditions: inhibition of interaction between Biotin-Cbl-b protein and Eu-Ubquitin-UbcH5B, HTRF signal 665 nm/615 nm.
Type: biochemical
Description: Experiment purpose: Testing of inhibitory activity of compounds on the interaction between Cbl-b protein and UbcH5B-Ub
Experimental method: Eu-Ubquitin-UbcH5B was prepared by incubating Eu-Ubquitin (Cisbio) with UbcH5B (ENZO), E1 (ENZO) at 37° C. for 4 hours. Eu-Ubquitin-UbcH5B was aliquoted and stored at −80° C. Cbl-b activity assay was performed in 384-well plates (Perkin Elmer). 100 nL of 3-fold serial dilutions of compounds (final concentration 10 μM-0.5 nM, starting concentration 10 μM, 3-fold dilution, 10 points, 10th point being 0.5 nM) and 5 μL of 50 nM Biotin-Cbl-b protein (Sigma) were incubated for 1 hour at room temperature, and the reaction buffer was 50 mM HEPES pH 7.0 (Gibco), 100 mM NaCl (Sigma), 0.01% Triton X-100 (Sigma), 0.01% BSA (Sigma) and 1 mM DTT (Invitrogen). 5 μL of Src mixed solution (40 nM Src (R&D), 2 mM ATP (Sigma), 10 mM MgCl2 (Sigma)) was added to the reaction plate and incubated at room temperature for 3 hours. 10 μL of detection solution (12.5 nM Strepdividin-XL665 (Cisbio), 500 nM Eu-Ubquitin-UbcH5B, […] (Invitrogen), 0.004% BSA (Sigma)) was added to the reaction plate, incubated overnight at room temperature, and the HTRF signal (665 nm/615 nm) was read on Envision (Perkin Elmer). IC50 was calculated using IDBS XLfit.

Cbl-b protein and UbcH5B-Ub, sequence (Q13191 whole entry, species assumed): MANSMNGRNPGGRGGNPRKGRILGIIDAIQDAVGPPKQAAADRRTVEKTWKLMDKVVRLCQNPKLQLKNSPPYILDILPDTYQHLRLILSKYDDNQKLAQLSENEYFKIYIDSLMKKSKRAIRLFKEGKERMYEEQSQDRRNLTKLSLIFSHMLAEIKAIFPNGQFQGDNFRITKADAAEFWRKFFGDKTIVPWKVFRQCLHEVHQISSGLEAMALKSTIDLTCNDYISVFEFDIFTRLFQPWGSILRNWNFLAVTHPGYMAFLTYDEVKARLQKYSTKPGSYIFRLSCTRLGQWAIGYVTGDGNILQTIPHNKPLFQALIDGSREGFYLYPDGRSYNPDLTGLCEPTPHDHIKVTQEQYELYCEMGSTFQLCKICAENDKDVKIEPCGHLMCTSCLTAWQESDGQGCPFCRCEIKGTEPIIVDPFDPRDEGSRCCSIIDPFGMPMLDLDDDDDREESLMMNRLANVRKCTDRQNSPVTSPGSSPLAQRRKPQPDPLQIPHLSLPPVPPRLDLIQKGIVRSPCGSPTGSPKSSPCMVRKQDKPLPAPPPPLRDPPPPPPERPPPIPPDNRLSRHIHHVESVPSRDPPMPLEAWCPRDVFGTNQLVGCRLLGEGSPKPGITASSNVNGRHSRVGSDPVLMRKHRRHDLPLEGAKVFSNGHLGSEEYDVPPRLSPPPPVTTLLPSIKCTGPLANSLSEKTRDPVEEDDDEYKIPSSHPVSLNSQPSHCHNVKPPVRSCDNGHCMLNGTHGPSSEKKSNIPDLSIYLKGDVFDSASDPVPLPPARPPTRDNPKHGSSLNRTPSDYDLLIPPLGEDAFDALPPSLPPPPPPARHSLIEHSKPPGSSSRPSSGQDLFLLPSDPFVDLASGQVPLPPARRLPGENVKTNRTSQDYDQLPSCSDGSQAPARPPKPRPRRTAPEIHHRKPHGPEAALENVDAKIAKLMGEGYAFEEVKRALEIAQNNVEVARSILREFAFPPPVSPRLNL

Row | Structure (SMILES) | IC50
7 | CC1CC(c2cccc(-c3cnc4ccc(CN5CCC[C@H](C)C5)cn4c3=O)c2)(c2nncn2C)C1 (stereo partly drawn) [Compound 1, 3-[3-[3-methyl-1-(4-methyl-4H-1,2,4-triazol-3-yl)cyclobutyl]phenyl]-7-[[(3S)-3-methyl-1-piperidyl]methyl]pyrido[1,2-a]pyrimidin-4-one] | 76.6 nM
8 | CC1CC(c2cccc(-c3cnc4c(C(F)(F)F)cc(CN5CCC[C@H](C)C5)cn4c3=O)c2)(c2nncn2C)C1 (stereo partly drawn) [Compound 2, 3-[3-[3-methyl-1-(4-methyl-4H-1,2,4-triazol-3-yl)cyclobutyl]phenyl]-7-[[(3S)-3-methyl-1-piperidyl]methyl]-9-(trifluoromethyl)pyrido[1,2-a]pyrimidin-4-one] | 40.3 nM
9 | C[C@H]1CCCN(Cc2cc(C(F)(F)F)c3ncc(-c4cccc([C@]5(c6nncn6C)C[C@@H](C)C5)c4)c(=O)n3c2)C1 [Compound 2-P1] | 27.1 nM
10 | COc1cc(CN2CCC[C@H](C)C2)cn2c(=O)c(-c3cccc(C4(c5nncn5C)CC(C)C4)c3)cnc12 (stereo partly shown) [Compound 3] | 296 nM
11 | CC1CC(c2cccc(-c3cnc4c(C(F)(F)F)cc(CN5CCO[C@H](C)C5)cn4c3=O)c2)(c2nncn2C)C1 (stereo partly shown) [Compound 4] | 268 nM
12 | C[C@H]1CCCN(Cc2cc(C(F)(F)F)c3ncc(-c4cccc(C5(Cc6nncn6C)COC5)c4)c(=O)n3c2)C1 [Compound 5] | 450 nM
13 | CC1CC(c2cccc(-c3cnc4c(F)cc(CN5CCC[C@H](C)C5)cn4c3=O)c2)(c2nncn2C)C1 (stereo partly shown) [Compound 9] | 130 nM
14 | CC1CC(c2cccc(-c3cnc4c(Cl)cc(CN5CCC[C@H](C)C5)cn4c3=O)c2)(c2nncn2C)C1 (stereo partly shown) [Compound 10] | 42.9 nM
15 | Cc1cc(CN2CCC[C@H](C)C2)cn2c(=O)c(-c3cccc(C4(c5nncn5C)CC(C)C4)c3)cnc12 (stereo partly shown) [Compound 11] | 31.2 nM
16 | CCc1cc(CN2CCC[C@H](C)C2)cn2c(=O)c(-c3cccc(C4(c5nncn5C)CC(C)C4)c3)cnc12 (stereo partly shown) [Compound 12] | 63.9 nM
17 | CC1CC(c2cccc(-c3cnc4c(Br)cc(CN5CCC[C@H](C)C5)cn4c3=O)c2)(c2nncn2C)C1 (stereo partly shown) [Compound 14] | 29.3 nM
18 | CC1CC(c2cccc(-c3cnc4c(C(F)(F)F)cc(CN5CC6CCC5C6)cn4c3=O)c2)(c2nncn2C)C1 (stereo not shown) [Compound 17] | 167 nM
19 | CC1CC(c2cccc(-c3cnc4sc(CN5CCC[C@H](C)C5)cn4c3=O)c2)(c2nncn2C)C1 (stereo partly drawn) [Compound 59, (S)-6-(3-(3-methyl-1-(4-methyl-4H-1,2,4-triazol-3-yl)cyclobutyl)phenyl)-2-((3-methylpiperidin-1-yl)methyl)-5H-thiazolo[3,2-a]pyrimidin-5-one] | 43.1 nM
20 | CC1CC(c2cccc(-c3cnc4c(C(F)(F)F)cc(CN5CC6CC(C)(C6)C5)cn4c3=O)c2)(c2nncn2C)C1 (stereo not shown) [Compound 62] | 23.6 nM
21 | C[C@H]1CCCN(Cc2cc(C(F)(F)F)c3ncc(-c4cccc(C(c5nncn5C)C5CC5)c4)c(=O)n3c2)C1 (stereo partly drawn) [Compound 63, 3-(3-(cyclopropyl(4-methyl-4H-1,2,4-triazol-3-yl)methyl)phenyl)-7-(((S)-3-methylpiperidin-1-yl)methyl)-9-trifluoromethyl-4H-pyrido[1,2-a]pyrimidin-4-one] | 41.6 nM
22 | Cc1cc(CN2CCC[C@H](C)C2)cc2c(=O)c(-c3cccc(C(C)(C)c4nncn4C)c3)coc12 [Compound 67, (S)-8-methyl-3-(3-(2-(4-methyl-4H-1,2,4-triazol-3-yl)propan-2-yl)phenyl)-6-((3-methylpiperidin-1-yl)methyl)-4H-chromen-4-one] | 96.4 nM
23 | Cc1cc(CN2CCN(C)C[C@@H]2C(C)C)cc2c(=O)c(-c3cccc(C4(c5nncn5C)CC(C)C4)c3)coc12 (stereo partly shown) [Compound 88] | 32.7 nM
24 | CC1CC(c2cccc(-c3cnc4c(C(F)(F)F)cc(CN5CCN(C)C[C@@H]5C(C)C)cn4c3=O)c2)(c2nncn2C)C1 (stereo partly shown) [Compound 89] | 41.6 nM
25 | Cc1cc(CN2CCC[C@H](C)C2)cc2c(=O)c(-c3cccc([C@](F)(c4nncn4C)C4CC4)c3)coc12 [Compound 120-P1] | 212 nM
26 | Cc1cc(CN2CCC[C@H](C)C2)cc2c(=O)c(-c3cccc([C@@](F)(c4nncn4C)C4CC4)c3)coc12 [Compound 120-P2, 3-(3-((R)-cyclopropylfluoro(4-methyl-4H-1,2,4-triazol-3-yl)methyl)phenyl)-8-methyl-6-(((S)-3-methylpiperidin-1-yl)methyl)-4H-chromen-4-one] | 7.8 nM
27 | Cc1cc(CN2CCC(F)(F)[C@H](C)C2)cc2c(=O)c(-c3cccc(C(F)(c4nncn4C)C4CC4)c3)coc12 (stereo partly drawn) [Compound 129, 3-(3-(cyclopropylfluoro(4-methyl-4H-1,2,4-triazol-3-yl)methyl)phenyl)-6-(((R)-4,4-difluoro-3-methylpiperidin-1-yl)methyl)-8-methyl-4H-chromen-4-one] | 17.8 nM

Other lines, results leading:

Row | IC50 | Structure (SMILES)
28 | 10.1 nM | Cc1c(F)c(CN2CCC[C@H](C)C2)cc2c(=O)c(-c3cccc(C4(c5nncn5C)CC(C)C4)c3)coc12 (stereo in doubt) [Compound 121, 7-fluoro-8-methyl-3-(3-(cis-3-methyl-1-(4-methyl-4H-1,2,4-triazol-3-yl)cyclobutyl)phenyl)-6-(((s)-3-methylpiperidin-1-yl)methyl)-4H-chromen-4-one]
29 | 31.9 nM | CC1CC(c2cccc(-c3cnc4c(C5CC5)cc(CN5CCC[C@H](C)C5)cn4c3=O)c2)(c2nncn2C)C1 (stereo partly shown) [Compound 13]
30 | 9.7 nM | Cc1cc(CN2CCC[C@H](C)C2)cc2c(=O)c(-c3cccc(C4(c5nncn5C)CC(C)C4)c3)coc12 (stereo partly drawn) [Compound 58, (S)-8-methyl-3-(3-(3-methyl-1-(4-methyl-4H-1,2,4-triazol-3-yl)cyclobutyl)phenyl)-6-((3-methylpiperidin-1-yl)methyl)-4H-chromen-4-one]
31 | 38.4 nM | Cc1cc(CN2CCC[C@H](C)C2)cc2c(=O)c(-c3cccc(C(c4nncn4C)C4CC4)c3)coc12 (stereo partly drawn) [Compound 64, 3-(3-(cyclopropyl(4-methyl-4H-1,2,4-triazol-3-yl)methyl)phenyl)-8-methyl-6-(((S)-3-methylpiperidin-1-yl)methyl)-4H-chromen-4-one]
32 | 17 nM | Cc1cc(CN2CCC[C@H](C)C2)cc2c(=O)c(-c3cncc(C4(c5nncn5C)CC(C)C4)c3)coc12 (stereo partly drawn) [Compound 65, (S)-8-methyl-3-(5-(3-methyl-1-(4-methyl-4H-1,2,4-triazol-3-yl)cyclobutyl)pyridin-3-yl)-6-((3-methylpiperidin-1-yl)methyl)-4H-chromen-4-one]
33 | 88.9 nM | Cc1cc(CN2CCC[C@H](C)C2)cc2c(=O)c(-c3cc(C(F)(F)F)cc(C4(c5nncn5C)CC(C)C4)c3)coc12 (stereo partly drawn) [Compound 66, (S)-8-methyl-3-(3-(3-methyl-1-(4-methyl-4H-1,2,4-triazol-3-yl)cyclobutyl)-5-trifluoromethylphenyl)-6-((3-methylpiperidin-1-yl)methyl)-4H-chromen-4-one]
34 | 203 nM | Cc1cc(CN2CCC[C@H](C)C2)cc2c(=O)c(-c3cccc(C4(c5nncn5C)CCO4)c3)coc12 (stereo partly drawn) [Compound 71, 8-methyl-3-(3-(2-(4-methyl-4H-1,2,4-triazol-3-yl)oxetan-2-yl)phenyl)-6-(((S)-3-methylpiperidin-1-yl)methyl)-4H-chromen-4-one]
35 | 64.9 nM | Cc1cc(CN2CCC[C@H](C)C2)cc2c(=O)c(-c3cccc(C4(c5nncn5C)CC(F)(F)C4)c3)coc12 [Compound 73, (S)-3-(3-(3,3-difluoro-1-(4-methyl-4H-1,2,4-triazol-3-yl)cyclobutyl)phenyl)-8-methyl-6-((3-methylpiperidin-1-yl)methyl)-4H-chromen-4-one]
36 | 19.1 nM | CC1CC(c2cccc(-c3coc4c(C5CC5)cc(CN5CCC[C@H](C)C5)cc4c3=O)c2)(c2nncn2C)C1 (stereo partly drawn) [Compound 74, (S)-8-cyclopropyl-3-(3-(3-methyl-1-(4-methyl-4H-1,2,4-triazol-3-yl)cyclobutyl)phenyl)-6-((3-methylpiperidin-1-yl)methyl)-4H-chromen-4-one]
37 | 7.4 nM | CC1CC(c2cncc(-c3coc4c(C5CC5)cc(CN5CCC[C@H](C)C5)cc4c3=O)c2)(c2nncn2C)C1 (stereo partly drawn) [Compound 75, (S)-8-cyclopropyl-3-(5-(3-methyl-1-(4-methyl-4H-1,2,4-triazol-3-yl)cyclobutyl)pyridin-3-yl)-6-((3-methylpiperidin-1-yl)methyl)-4H-chromen-4-one]
